Measured values from the supplement of paper PMC11061612.

How the values were obtained:
Assay in all cases: combination Emax (second highest fraction inhibited in the dose matrix, 72 h); higher = more inhibition; extreme values may be limits of the assay
EW-7 (Ewing's Sarcoma) = test system: EW-7 (Ewing's Sarcoma)
Outline: (§1)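 Cell lines in DMEM/F12 or RPMI with 10% FBS were plated in 1536-well plates, held 24 hours at 37°C, 5% CO2, then given two-drug dose matrices for 72 hours (DMSO typically 0.2%). Viability was read by CellTiter-Glo 2.0 luminescence and scaled as inhibition from 0 (vehicle wells) to 1 (blank wells). Combination Emax is the second-highest inhibition in the matrix; Bliss excess is observed combination effect minus expected EA + EB − EA·EB, EA and EB being single-agent effects.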

[1] = test system: JHU-022 (Oral Cavity Carcinoma)
Outline: as §1

WM1552C (Melanoma) = test system: WM1552C (Melanoma)
Outline: as §1

[2] = test system: LU-165 (Small Cell Lung Carcinoma)
Outline: as §1

[3] = test system: SW620 (Colorectal Carcinoma)
Outline: as §1

769-P (Kidney Carcinoma) = test system: 769-P (Kidney Carcinoma)
Outline: as §1

[4] = test system: JHH-2 (Hepatocellular Carcinoma)
Outline: as §1

PEO1 (Ovarian Carcinoma) = test system: PEO1 (Ovarian Carcinoma)
Outline: as §1

[5] = test system: UACC-812 (Breast Carcinoma)
Outline: as §1

[6] = test system: MDA-MB-436 (Breast Carcinoma)
Outline: as §1

[7] = test system: NCI-H441 (Lung Adenocarcinoma)
Outline: as §1

[8] = test system: HCC1395 (Breast Carcinoma)
Outline: as §1

KP-N-YN (Neuroblastoma) = test system: KP-N-YN (Neuroblastoma)
Outline: as §1

NB13 (Neuroblastoma) = test system: NB13 (Neuroblastoma)
Outline: as §1

SMILES | combination Emax (EW-7 (Ewing's Sarcoma)) | combination Emax [1] | combination Emax (WM1552C (Melanoma)) | combination Emax [2] | combination Emax [3] | combination Emax (769-P (Kidney Carcinoma)) | combination Emax [4] | combination Emax (PEO1 (Ovarian Carcinoma)) | combination Emax [5] | combination Emax [6] | combination Emax [7] | combination Emax [8] | combination Emax (KP-N-YN (Neuroblastoma)) | combination Emax (NB13 (Neuroblastoma))
Cc1c2c(nn1C)CSCc1cc(n(C)n1)CSc1cc(c3ccccc3c1)OCCCc1c(C(=O)O)n(C)c3c-2c(Cl)ccc13 [AZD5991] + Nc1ccn([C@@H]2O[C@H](CO)[C@@H](O)C2(F)F)c(=O)n1 [Gemcitabine] (first compound max 1 µM, 7x7, partner max 0.3 µM) | 1 | 0.659 | 0.899 | 0.423 | 0.657 | 0.701 | 0.483 | 0.544 | 0.755 | 0.56 | 0.519 |  |  | 
Cc1c2c(nn1C)CSCc1cc(n(C)n1)CSc1cc(c3ccccc3c1)OCCCc1c(C(=O)O)n(C)c3c-2c(Cl)ccc13 [AZD5991] + CC(=O)O[C@H]1C(=O)[C@@]2(C)[C@H]([C@H](OC(=O)c3ccccc3)[C@]3(O)C[C@H](OC(=O)[C@H](O)[C@@H](NC(=O)c4ccccc4)c4ccccc4)C(C)=C1C3(C)C)[C@]1(OC(C)=O)CO[C@@H]1C[C@@H]2O [Paclitaxel] (first compound max 1 µM, 7x7, partner max 3 µM) | 0.984 | 0.371 | 0.989 | 0.36 | 0.788 | 0.789 | 0.783 | 0.762 | 0.794 | 0.391 | 0.401 | 0.933 | 0.608 | 
O=C(c1cc(Cc2n[nH]c(=O)c3ccccc23)ccc1F)N1CCN(C(=O)C2CC2)CC1 [Olaparib] + Cc1c2c(nn1C)CSCc1cc(n(C)n1)CSc1cc(c3ccccc3c1)OCCCc1c(C(=O)O)n(C)c3c-2c(Cl)ccc13 [AZD5991] (first compound max 10 µM, 7x7, partner max 1 µM) | 0.787 | 0.0997 | 0.856 | 0.141 | 0.173 | 0.261 | 0.163 | 0.112 | 0.643 | 0.234 | 0.0979 | 0.616 | 0.335 | 
C[C@@H]1COCCN1c1cc(C2([S@](C)(=N)=O)CC2)nc(-c2ccnc3[nH]ccc23)n1 [AZD6738] + Nc1ccn([C@@H]2O[C@H](CO)[C@@H](O)C2(F)F)c(=O)n1 [Gemcitabine] (first compound max 10 µM, 7x7, partner max 0.3 µM) | 1 | 0.695 | 0.868 | 0.551 | 0.895 | 0.865 | 0.716 | 0.696 | 0.66 | 0.621 | 0.568 | 0.693 |  | 
C=CCn1c(=O)c2cnc(Nc3ccc(N4CCN(C)CC4)cc3)nc2n1-c1cccc(C(C)(C)O)n1 [AZD1775] + Nc1ccn([C@@H]2O[C@H](CO)[C@@H](O)C2(F)F)c(=O)n1 [Gemcitabine] (first compound max 1 µM, partner max 0.3 µM) | 1 | 0.617 | 0.72 | 0.508 | 0.9 | 0.868 | 0.735 | 0.65 | 0.626 | 0.608 | 0.55 | 0.515 |  | 
C=CCn1c(=O)c2cnc(Nc3ccc(N4CCN(C)CC4)cc3)nc2n1-c1cccc(C(C)(C)O)n1 [AZD1775] + CCc1c2c(nc3ccc(O)cc13)-c1cc3c(c(=O)n1C2)COC(=O)[C@]3(O)CC [SN-38] (first compound max 1 µM, partner max 0.3 µM) | 0.966 | 0.783 | 0.611 | 0.588 | 0.949 | 0.881 | 0.76 | 0.768 | 0.513 | 0.591 | 0.685 | 0.733 |  | 0.853
CN(CCO)CC[C@H](CSc1ccccc1)Nc1ccc(S(=O)(=O)NC(=O)c2ccc(N3CCC([C@@H](O)c4ccccc4-c4ccc(Cl)cc4)CC3)cc2)cc1S(=O)(=O)C(F)(F)F [AZD4320] + CS(=O)(=O)CCNCc1ccc(-c2ccc3ncnc(Nc4ccc(OCc5cccc(F)c5)c(Cl)c4)c3c2)o1 [Lapatinib] (first compound max 1 µM, 7x7, partner max 10 µM) | 0.979 | 0.784 | 0.571 | 0.943 | 0.741 | 0.989 | 0.778 | 0.829 | 0.616 | 0.256 | 0.479 | 0.96 |  | 0.989
C[C@@H]1COCCN1c1cc(C2([S@](C)(=N)=O)CC2)nc(-c2ccnc3[nH]ccc23)n1 [AZD6738] + C1CC(C1)(C(=O)[O-])C(=O)[O-].N.N.[Pt+2] [Carboplatin] (first compound max 10 µM, 7x7, partner max 10 µM) | 0.936 | 0.513 | 0.564 | 0.41 | 0.478 | 0.878 | 0.507 | 0.675 | 0.381 | 0.266 | 0.394 | 0.586 |  | 0.81
